According to patent publication US8680052B1, “Methods of treating, reducing the incidence of, and/or preventing ischemic events” (The Medicines Company, priority 2013, dated 2014):

Test system: platelets
Experiment: Example 4: light transmission aggregometry (LTA) induced by 5 and 20 μM ADP
Assay type: in vivo, human
Method: The study involved 12 patients who met the criteria of being 18-75 years of age, having coronary artery disease (CAD) documented by a previous MI or coronary revascularization, and taking 81 mg of aspirin daily. […] Prohibited concomitant medications included strong and potent CYP3A inhibitors, simvastatin and lovastatin at doses more than 40 mg/day, omeprazole or esomeprazole, and digoxin. Use of non-steroidal anti-inflammatory agents was discouraged during study participation but not prohibited.
Each patient was administered a 30 μg/kg bolus of cangrelor followed immediately by a 2 hr infusion at a rate of 4.0 μg/kg/min. A loading dose of ticagrelor (180 mg) was given after 0.5 hr or 1.25 hr (n=6 for each). Blood for pharmacodynamic platelet function studies was taken after 0.5 or 1.25 hr (corresponding to the time of ticagrelor load, n=6 for each), and then at 1.75, 2, 2.25, 2.5, 2.75, 3, 4, and 5.25 hr. Patients were assigned randomly to receive either 6 (n=6) or 7 (n=6) doses of ticagrelor to be taken every 12 hours following the discontinuation of the infusion of cangrelor. On study day 5, each patient was administered a 30 μg/kg bolus of cangrelor followed immediately by a 2 hr infusion at a rate of 4.0 μg/kg/min. Blood for pharmacodynamic assessment was taken after 1 and 2 hr. Adverse events were queried throughout study participation that ended with a telephone interview performed on study day 10-12.
Pharmacodynamic assessment included light transmission aggregometry (LTA), VerifyNow® P2Y12 assay, vasodilator-stimulated phosphoprotein (VASP) index, and platelet activation measured with the use of flow cytometry. Assessment of LTA, VerifyNow®, and platelet activation with the use of flow cytometry was performed within 30 min of blood being taken. In the case of flow cytometry, samples were processed to fixation and then batched for analysis. For VASP, index samples were batched and processed as recommended by the vendor within 2 h of blood being taken. This approach limited the time from fixation of VASP index to flow analysis to less than 1 h.
LTA induced by 5 μM and 20 μM adenosine diphosphate (ADP) was quantified ex vivo (i.e. in non-adjusted platelet rich plasma). Platelet-poor plasma was set as 100% aggregation, and both maximal (peak) and terminal (at 300 s) aggregation were measured with a PAP4 aggregometer (BioData, Horsham, Pa.). VerifyNow® P2Y12 assay (Accumetrics Inc, San Diego, Calif.) that measures the effects of drugs on the P2Y12 receptor by activating platelets with prostaglandin El in addition to ADP was used in accordance with the instructions provided by the manufacturer. Platelet reactivity was expressed in P2Y12 reaction units (PRU). Activation of platelets was identified with the use of flow cytometry as previously described.^17. And to determine the VASP index, a commercially available kit (Diagnostica Stago, Inc, Parsippany NJ) was used. ^17 Schneider D J, Sobel B E. Streamlining the design of promising clinical trials: in-vitro testing of antithrombotic regimens and multiple agonists of platelet activation. Coron Artery Dis. 2009; 20:175-8.

[1] = reference 5.25 h, Ticagrelor at 0.5 h
[2] = reference 5.25 h, Ticagrelor at 1.25 h
[3] = ticagrelor at 0.5 hr, 1.75 hr later (at 2.25 hr)
[4] = ticagrelor at 1.25 hr, 1.75 hr after the loading dose (at 3.0 hr)

## CCCSc1nc(N[C@@H]2C[C@H]2c2ccc(F)c(F)c2)c2nnn([C@@H]3C[C@H](OCCO)[C@@H](O)[C@H]3O)c2n1 [ticagrelor]
2.25 h, All
  IPA, 5 μM ADP, LTA: 87 ± 8%
  IPA, 20 μM ADP, LTA: 83 ± 14%
  PR, 5 μM ADP, LTA: 7 ± 5%
  PR, 20 μM ADP, LTA: 12 ± 11%
2.25 h, Ticagrelor at 0.5 h
  IPA, 5 μM ADP, LTA: 84 ± 10%
  IPA, 20 μM ADP, LTA: 82 ± 13%
  PR, 5 μM ADP, LTA: 7.7 ± 5.9%
  PR, 20 μM ADP, LTA: 13 ± 9.3%
2.25 h, Ticagrelor at 1.25 h
  IPA, 5 μM ADP, LTA: 89 ± 5%
  IPA, 20 μM ADP, LTA: 84 ± 17%
  PR, 5 μM ADP, LTA: 5.3 ± 3.6%
  PR, 20 μM ADP, LTA: 11 ± 12%
2.5 h, All
  IPA, 5 μM ADP, LTA: 79 ± 15%
  IPA, 20 μM ADP, LTA: 72 ± 26%
  PR, 5 μM ADP, LTA: 10 ± 7%
  PR, 20 μM ADP, LTA: 19 ± 16%
2.5 h, Ticagrelor at 0.5 h
  IPA, 5 μM ADP, LTA: 82 ± 13%
  IPA, 20 μM ADP, LTA: 78 ± 21%
  PR, 5 μM ADP, LTA: 10 ± 5.7%
  PR, 20 μM ADP, LTA: 16 ± 15%
2.5 h, Ticagrelor at 1.25 h
  IPA, 5 μM ADP, LTA: 76 ± 18%
  IPA, 20 μM ADP, LTA: 65 ± 30%
  PR, 5 μM ADP, LTA: 11 ± 9%
  PR, 20 μM ADP, LTA: 21 ± 17%
2.75 h, All
  IPA, 5 μM ADP, LTA: 86 ± 11%
  IPA, 20 μM ADP, LTA: 86 ± 15%
  PR, 5 μM ADP, LTA: 5.8 ± 3%
  PR, 20 μM ADP, LTA: 10 ± 9.2%
2.75 h, Ticagrelor at 0.5 h
  IPA, 5 μM ADP, LTA: 87 ± 7%
  IPA, 20 μM ADP, LTA: 84 ± 15%
  PR, 5 μM ADP, LTA: 6.7 ± 4.1%
  PR, 20 μM ADP, LTA: 12 ± 11%
2.75 h, Ticagrelor at 1.25 h
  IPA, 5 μM ADP, LTA: 85 ± 15%
  IPA, 20 μM ADP, LTA: 87 ± 15%
  PR, 5 μM ADP, LTA: 4.8 ± 0.8%
  PR, 20 μM ADP, LTA: 7.8 ± 7.2%
3 h, All
  IPA, 5 μM ADP, LTA: 86 ± 17%
  IPA, 20 μM ADP, LTA: 90 ± 9%
  PR, 5 μM ADP, LTA: 5.5 ± 5.2%
  PR, 20 μM ADP, LTA: 7.1 ± 6.3%
3 h, Ticagrelor at 0.5 h
  IPA, 5 μM ADP, LTA: 85 ± 15%
  IPA, 20 μM ADP, LTA: 87 ± 10%
  PR, 5 μM ADP, LTA: 8 ± 6.5%
  PR, 20 μM ADP, LTA: 10 ± 7.6%
3 h, Ticagrelor at 1.25 h
  IPA, 5 μM ADP, LTA: 87 ± 21%
  IPA, 20 μM ADP, LTA: 93 ± 7%
  PR, 5 μM ADP, LTA: 3 ± 1.5%
  PR, 20 μM ADP, LTA: 4.5 ± 3.4%
4 h, All
  IPA, 5 μM ADP, LTA: 88 ± 9%
  IPA, 20 μM ADP, LTA: 94 ± 4%
  PR, 5 μM ADP, LTA: 5.5 ± 3.3%
  PR, 20 μM ADP, LTA: 4.6 ± 3.6%
4 h, Ticagrelor at 0.5 h
  IPA, 5 μM ADP, LTA: 87 ± 5%
  IPA, 20 μM ADP, LTA: 91 ± 4%
  PR, 5 μM ADP, LTA: 7.3 ± 3.9%
  PR, 20 μM ADP, LTA: 6.7 ± 3.7%
4 h, Ticagrelor at 1.25 h
  IPA, 5 μM ADP, LTA: 89 ± 12%
  IPA, 20 μM ADP, LTA: 96 ± 4%
  PR, 5 μM ADP, LTA: 3.7 ± 1%
  PR, 20 μM ADP, LTA: 2.5 ± 1.9%
12 hours after the last dose of ticagrelor, study day 5
  residual platelet reactivity: 12±9%
At 2.5 hr, ticagrelor 180 mg given at 0.5 hr of 2 hr cangrelor infusion
  residual platelet reactivity: 16±15%
Reference 5.25 h, All
  IPA, 5 μM ADP, LTA: 94 ± 5%
  IPA, 20 μM ADP, LTA: 95 ± 4%
  PR, 5 μM ADP, LTA: 3.1 ± 2.8%
  PR, 20 μM ADP, LTA: 4 ± 3.4%
[1]
  IPA, 5 μM ADP, LTA: 92 ± 6%
  IPA, 20 μM ADP, LTA: 92 ± 4%
  PR, 5 μM ADP, LTA: 4.2 ± 2%
  PR, 20 μM ADP, LTA: 5.8 ± 3.1%
[2]
  IPA, 5 μM ADP, LTA: 97 ± 4%
  IPA, 20 μM ADP, LTA: 97 ± 4%
  PR, 5 μM ADP, LTA: 2 ± 2.3%
  PR, 20 μM ADP, LTA: 2.2 ± 2.7%
[3]
  extent of inhibition: 82±13%
  residual platelet reactivity: 13±9.3%
[4]
  extent of inhibition: 93±7%
  residual platelet reactivity: 4.5±3.4%
